Laboratory results: ChEMBL document CHEMBL4393697, “Lipophilic efficient phenylthiazoles with potent undecaprenyl pyrophosphatase inhibitory activity” (Eur J Med Chem, 2019)
Calls of active or inactive are those of the source.

Experiments:
Staphylococcus aureus [1] = assay: Antibacterial activity against Staphylococcus aureus NRS107 assessed as reduction in bacterial cell growth incubated for 18 to 20 hrs by broth microdilution method; format: functional
Staphylococcus aureus [2] = assay: Antibacterial activity against methicillin resistant Staphylococcus aureus USA400 assessed as reduction in bacterial cell growth incubated for 18 to 20 hrs by broth microdilution method; format: functional
Staphylococcus aureus [3] = assay: Antibacterial activity against methicillin-resistant Staphylococcus aureus USA300 assessed as reduction in bacterial cell growth incubated for 18 to 20 hrs by broth microdilution method; format: functional
Staphylococcus aureus [4] = assay: Antibacterial activity against methicillin resistant Staphylococcus aureus NRS119 assessed as reduction in bacterial cell growth incubated for 18 to 20 hrs by broth microdilution method; format: functional
Staphylococcus aureus [5] = assay: Antibacterial activity against vancomycin resistant Staphylococcus aureus VRS10 assessed as reduction in bacterial cell growth incubated for 18 to 20 hrs by broth microdilution method; format: functional
Staphylococcus aureus [6] = assay: Antibacterial activity against Staphylococcus aureus ATCC 6538 assessed as reduction in bacterial cell growth incubated for 18 to 20 hrs by broth microdilution method; format: functional
[7] = tested on: Staphylococcus epidermidis; assay: Antibacterial activity against methicillin resistant Staphylococcus epidermidis NRS101 assessed as reduction in bacterial cell growth incubated for 18 to 20 hrs by broth microdilution method; format: functional
Staphylococcus aureus [8] = assay: Antibacterial activity against vancomycin resistant Staphylococcus aureus VRS12 assessed as reduction in bacterial cell growth incubated for 18 to 20 hrs by broth microdilution method; format: functional
Staphylococcus aureus [9] = assay: Antibacterial activity against vancomycin resistant Staphylococcus aureus VRS11a assessed as reduction in bacterial cell growth incubated for 18 to 20 hrs by broth microdilution method; format: functional
Staphylococcus aureus [10] = assay: Antibacterial activity against intracellular methicillin resistant Staphylococcus aureus USA400 infected in mouse J774 cells assessed as log10 reduction of viable bacterial cells incubated for 24 hrs followed by re-plating on tryptic soy agar plates at 37 degC for 18 to 22 hrs by broth microdilution assay; format: functional
Enterococcus faecalis [11] = assay: Antibacterial activity against vancomycin resistant Enterococcus faecalis ATCC 51299 assessed as reduction in bacterial cell growth incubated for 18 to 20 hrs by broth microdilution method; format: functional
Enterococcus faecium [12] = assay: Antibacterial activity against vancomycin resistant Enterococcus faecium ATCC 700221 assessed as reduction in bacterial cell growth incubated for 18 to 20 hrs by broth microdilution method; format: functional
Listeria monocytogenes [13] = assay: Antibacterial activity against Listeria monocytogenes ATCC 19111 assessed as reduction in bacterial cell growth incubated for 18 to 20 hrs by broth microdilution method; format: functional
Streptococcus pneumoniae [14] = assay: Antibacterial activity against Cephalosporin resistant Streptococcus pneumoniae ATCC 51916 assessed as reduction in bacterial cell growth incubated for 18 to 20 hrs by broth microdilution method; format: functional
Streptococcus pneumoniae [15] = assay: Antibacterial activity against Methicillin resistant Streptococcus pneumoniae ATCC 700677 assessed as reduction in bacterial cell growth incubated for 18 to 20 hrs by broth microdilution method; format: functional
Staphylococcus aureus [16] = assay: Bactericidal activity against Staphylococcus aureus ATCC 6538 assessed as reduction in bacterial cell growth incubated for 18 to 20 hrs followed by re-plating on tryptic soy agar plates at 37 degC for 18 hrs by broth microdilution assay; format: functional
Staphylococcus aureus [17] = assay: Bactericidal activity against Staphylococcus aureus NRS107 assessed as reduction in bacterial cell growth incubated for 18 to 20 hrs followed by re-plating on tryptic soy agar plates at 37 degC for 18 hrs by broth microdilution assay; format: functional
Staphylococcus aureus [18] = assay: Bactericidal activity against methicillin resistant Staphylococcus aureus NRS119 assessed as reduction in bacterial cell growth incubated for 18 to 20 hrs followed by re-plating on tryptic soy agar plates at 37 degC for 18 hrs by broth microdilution assay; format: functional
Staphylococcus aureus [19] = assay: Bactericidal activity against methicillin-resistant Staphylococcus aureus USA300 assessed as reduction in bacterial cell growth incubated for 18 to 20 hrs followed by re-plating on tryptic soy agar plates at 37 degC for 18 hrs by broth microdilution assay; format: functional
Staphylococcus aureus [20] = assay: Bactericidal activity against vancomycin resistant Staphylococcus aureus VRS10 assessed as reduction in bacterial cell growth incubated for 18 to 20 hrs followed by re-plating on tryptic soy agar plates at 37 degC for 18 hrs by broth microdilution assay; format: functional
Staphylococcus aureus [21] = assay: Bactericidal activity against vancomycin resistant Staphylococcus aureus VRS11a assessed as reduction in bacterial cell growth incubated for 18 to 20 hrs followed by re-plating on tryptic soy agar plates at 37 degC for 18 hrs by broth microdilution assay; format: functional
Staphylococcus aureus [22] = assay: Bactericidal activity against vancomycin resistant Staphylococcus aureus VRS12 assessed as reduction in bacterial cell growth incubated for 18 to 20 hrs followed by re-plating on tryptic soy agar plates at 37 degC for 18 hrs by broth microdilution assay; format: functional
[23] = tested on: Staphylococcus epidermidis; assay: Bactericidal activity against methicillin resistant Staphylococcus epidermidis NRS101 assessed as reduction in bacterial cell growth incubated for 18 to 20 hrs followed by re-plating on tryptic soy agar plates at 37 degC for 18 hrs by broth microdilution assay; format: functional
Enterococcus faecalis [24] = assay: Bactericidal activity against vancomycin resistant Enterococcus faecalis ATCC 51299 assessed as reduction in bacterial cell growth incubated for 18 to 20 hrs followed by re-plating on tryptic soy agar plates at 37 degC for 18 hrs by broth microdilution assay; format: functional
Enterococcus faecium [25] = assay: Bactericidal activity against vancomycin resistant Enterococcus faecium ATCC 700221 assessed as reduction in bacterial cell growth incubated for 18 to 20 hrs followed by re-plating on tryptic soy agar plates at 37 degC for 18 hrs by broth microdilution assay; format: functional
Listeria monocytogenes [26] = assay: Bactericidal activity against Listeria monocytogenes ATCC 19111 assessed as reduction in bacterial cell growth incubated for 18 to 20 hrs followed by re-plating on tryptic soy agar plates at 37 degC for 18 hrs by broth microdilution assay; format: functional
Streptococcus pneumoniae [27] = assay: Bactericidal activity against Cephalosporin resistant Streptococcus pneumoniae ATCC 51916 assessed as reduction in bacterial cell growth incubated for 18 to 20 hrs followed by re-plating on tryptic soy agar plates at 37 degC for 18 hrs by broth microdilution assay; format: functional
Streptococcus pneumoniae [28] = assay: Bactericidal activity against Methicillin resistant Streptococcus pneumoniae ATCC 700677 assessed as reduction in bacterial cell growth incubated for 18 to 20 hrs followed by re-plating on tryptic soy agar plates at 37 degC for 18 hrs by broth microdilution assay; format: functional
Acinetobacter baumannii [29] = assay: Antibacterial activity against Acinetobacter baumannii ATCC 19606 assessed as reduction in bacterial cell growth incubated for 18 to 20 hrs by broth microdilution method; format: functional
Escherichia coli [30] = assay: Antibacterial activity against Escherichia coli BW25113 assessed as reduction in bacterial cell growth incubated for 18 to 20 hrs by broth microdilution method; format: functional
Escherichia coli [31] = assay: Antibacterial activity against Escherichia coli JW55031 harboring deltatolC mutant assessed as reduction in bacterial cell growth incubated for 18 to 20 hrs by broth microdilution method; format: functional
Klebsiella pneumoniae [32] = assay: Antibacterial activity against Klebsiella pneumoniae BAA-1706 assessed as reduction in bacterial cell growth incubated for 18 to 20 hrs by broth microdilution method; format: functional
Pseudomonas aeruginosa [33] = assay: Antibacterial activity against Pseudomonas aeruginosa ATCC 15442 assessed as reduction in bacterial cell growth incubated for 18 to 20 hrs by broth microdilution method; format: functional
Acinetobacter baumannii [34] = assay: Bactericidal activity against Acinetobacter baumannii ATCC 19606 assessed as reduction in bacterial cell growth incubated for 18 to 20 hrs followed by re-plating on tryptic soy agar plates at 37 degC for 18 hrs by broth microdilution assay; format: functional
Escherichia coli [35] = assay: BActericidal activity against Escherichia coli BW25113 assessed as reduction in bacterial cell growth incubated for 18 to 20 hrs followed by re-plating on tryptic soy agar plates at 37 degC for 18 hrs by broth microdilution assay; format: functional
Escherichia coli [36] = assay: Bactericidal activity against Escherichia coli JW55031 harboring deltatolC mutant assessed as reduction in bacterial cell growth incubated for 18 to 20 hrs followed by re-plating on tryptic soy agar plates at 37 degC for 18 hrs by broth microdilution assay; format: functional
Klebsiella pneumoniae [37] = assay: Bactericidal activity against Klebsiella pneumoniae BAA-1706 assessed as reduction in bacterial cell growth incubated for 18 to 20 hrs followed by re-plating on tryptic soy agar plates at 37 degC for 18 hrs by broth microdilution assay; format: functional
Pseudomonas aeruginosa [38] = assay: Bactericidal activity against Pseudomonas aeruginosa ATCC 15442 assessed as reduction in bacterial cell growth incubated for 18 to 20 hrs followed by re-plating on tryptic soy agar plates at 37 degC for 18 hrs by broth microdilution assay; format: functional
J774 [39] = assay: Cytotoxicity against mouse J774 assessed as reduction in cell viability at 16 ug/ml incubated for 24 hrs by MTS assay; format: cell-based; conditions: j774, 24 h
J774 [40] = assay: Cytotoxicity against mouse J774 cells reduction in cell viability up to 32 ug/ml incubated for 24 hrs by MTS assay; format: cell-based; conditions: j774, 24 h
[41] = Solubility of compound in PBS after 2 hrs by turbidity based absorbance analysis; format: physicochemical
Staphylococcus aureus [42] = assay: Antibacterial activity against methicillin-resistant Staphylococcus aureus USA400 assessed as reduction in CFU at 4 x MIC preincubated for 12 hrs in Tryptic soy broth followed by incubation for 18 to 20 hrs on TSA plate by time-kill assay; format: functional

C/C(=N\NC(=N)N)c1sc(-c2ccc(C#Cc3cccc(O)c3)cc2)nc1C
4 µg/mL: MIC (Staphylococcus aureus [1]) | MIC (Staphylococcus aureus [3]) | MIC (Staphylococcus aureus [5]) | MIC (Staphylococcus aureus [8]) | MIC (Staphylococcus aureus [9]) | MBC (Staphylococcus aureus [16]) | MBC (Staphylococcus aureus [17]) | MBC (Staphylococcus aureus [18]) | MBC (Staphylococcus aureus [19]) | MBC (Staphylococcus aureus [20]) | MBC (Staphylococcus aureus [21]) | MBC (Staphylococcus aureus [22])
> 64 µg/mL: MIC (Acinetobacter baumannii [29]) | MIC (Escherichia coli [30]) | MIC (Klebsiella pneumoniae [32]) | MIC (Pseudomonas aeruginosa [33]) | MBC (Acinetobacter baumannii [34]) | MBC (Escherichia coli [35]) | MBC (Escherichia coli [36]) | MBC (Klebsiella pneumoniae [37]) | MBC (Pseudomonas aeruginosa [38])
2 µg/mL: MIC (Staphylococcus aureus [2]) | MIC (Staphylococcus aureus [4]) | MIC (Staphylococcus aureus [6]) | MIC [7] | MBC [23]
≤ 0.5 µg/mL: MIC (Enterococcus faecium [12])
1 µg/mL: MBC (Enterococcus faecium [25])
Non-Toxic: Activity (J774 [39]) | Activity (J774 [40])
8 µg/mL: MIC (Listeria monocytogenes [13]) | MIC (Streptococcus pneumoniae [14])
55 µM: solubility kinetic at 2 h [41]
0.92 log10CFU: Activity (Staphylococcus aureus [10])
16 µg/mL: MIC (Streptococcus pneumoniae [15])
64 µg/mL: MBC (Enterococcus faecalis [24]) | MBC (Listeria monocytogenes [26]) | MIC (Escherichia coli [31])
32 µg/mL: MIC (Enterococcus faecalis [11]) | MBC (Streptococcus pneumoniae [27]) | MBC (Streptococcus pneumoniae [28])

CN[C@H](CC(C)C)C(=O)N[C@H]1C(=O)N[C@@H](CC(N)=O)C(=O)N[C@H]2C(=O)N[C@H]3C(=O)N[C@H](C(=O)N[C@H](C(=O)O)c4cc(O)cc(O)c4-c4cc3ccc4O)[C@H](O)c3ccc(c(Cl)c3)Oc3cc2cc(c3O[C@@H]2O[C@H](CO)[C@@H](O)[C@H](O)[C@H]2O[C@H]2C[C@](C)(N)[C@H](O)[C@H](C)O2)Oc2ccc(cc2Cl)[C@H]1O [VANCOMYCIN]
4 µg/mL: MBC (Staphylococcus aureus [19])
2 µg/mL: MIC (Streptococcus pneumoniae [15]) | MBC (Staphylococcus aureus [17])
1 µg/mL: MIC (Listeria monocytogenes [13]) | MIC (Streptococcus pneumoniae [14]) | MBC (Staphylococcus aureus [16]) | MBC (Staphylococcus aureus [18]) | MBC (Streptococcus pneumoniae [27])
active: inhibition (Staphylococcus aureus [42])
> 64 µg/mL: MIC (Staphylococcus aureus [5]) | MIC (Staphylococcus aureus [9]) | MIC (Enterococcus faecium [12]) | MBC (Staphylococcus aureus [20]) | MBC (Staphylococcus aureus [21]) | MBC (Enterococcus faecalis [24]) | MBC (Enterococcus faecium [25])
inactive: inhibition (Staphylococcus aureus [10])
32 µg/mL: MIC (Enterococcus faecalis [11])
64 µg/mL: MIC (Staphylococcus aureus [8]) | MBC (Staphylococcus aureus [22])
